Experiment [1] deals with collagen-induced platelet aggregation. To be noted: background art, cited from earlier work.
Experiment [2] concerns the target T1, Cyclooxygenase-1 (COX-1) (Ovis aries, UniProt P05979).
T1 construct: purchased Cayman Chemical Company 560101 and 560121
T1 sequence (P05979 25-600): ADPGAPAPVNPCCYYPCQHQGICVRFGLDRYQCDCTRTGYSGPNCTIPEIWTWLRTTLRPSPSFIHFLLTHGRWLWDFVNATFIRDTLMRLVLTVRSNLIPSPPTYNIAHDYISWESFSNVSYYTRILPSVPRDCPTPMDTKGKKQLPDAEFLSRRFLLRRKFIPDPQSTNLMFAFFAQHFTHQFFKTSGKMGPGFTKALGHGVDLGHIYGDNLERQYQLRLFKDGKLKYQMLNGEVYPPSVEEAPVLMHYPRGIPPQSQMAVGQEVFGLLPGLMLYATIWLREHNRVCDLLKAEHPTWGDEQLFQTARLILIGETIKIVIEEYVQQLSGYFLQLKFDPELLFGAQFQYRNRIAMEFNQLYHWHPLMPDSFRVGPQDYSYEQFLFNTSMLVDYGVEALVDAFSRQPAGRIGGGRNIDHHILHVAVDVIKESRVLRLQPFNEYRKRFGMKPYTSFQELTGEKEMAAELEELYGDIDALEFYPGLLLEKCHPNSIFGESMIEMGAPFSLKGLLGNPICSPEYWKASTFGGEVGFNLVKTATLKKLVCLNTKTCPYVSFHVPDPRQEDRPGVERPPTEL
The experiment can be described thus: COX Inhibitor Screening Assay Kit, COX-1 (PGF2α by ELISA). The conditions noted are these: 50 μM compound; read-out: Inhibitory effect against COX-1 at 50 μM (% inhibition). The class given is biochemical. As to the method:
(§1) COX-1 inhibiting activity and COX-2 inhibiting activity of inventive compounds produced in some of the Examples herein were measured by use of a COX Inhibitor Screening Assay Kit (product of Cayman Chemical Company, Catalog Nos. 560101 and 560121).
(§2) Before starting the measurement, a reaction buffer, heme, arachidonic acid, SnCl2, EIA buffer, washing buffer, prostaglandin (PG) screening EIA standard, PG screening acetylcholine esterase (AchE), tracer ([…]), and PG screening EIA antiserum were prepared ready for use.
(§3) Production of PGF in the Presence of COX-1 or COX-2
A reaction mixture containing a compound of the present invention from the Examples (50 μM) and COX-1 or COX-2 was allowed to stand at 37° C. for 10 minutes. Arachidonic acid (10 μL) was added thereto, and the resultant mixture was further allowed to stand at 37° C. for 2 minutes. 1N-Hydrochloric acid (50 μL) was added to the reaction mixture, to thereby stop the reaction. SnCl2 solution (100 μL) was added thereto, and the resultant mixture was allowed to stand at room temperature for 5 minutes.
(§4) (2) Quantitative Determination of PGF2α Using ELISA
Antiserum (rabbit anti-PGF2α antibody, 50 μL) was added to the wells of a 96-well plate that had been coated with mouse anti-rabbit IgG. A solution of PGF2α-containing mixture obtained above (2000-fold dilution, 50 μL) and an AchE tracer (50 μL) were sequentially added to each well, and the mixture was allowed to stand at room temperature for 18 hours. The wells were washed 5 times with the washing buffer to remove an excessive AchE tracer, and an Ellman reagent (200 μL) was added. After keeping the plate in a dark room for 60 minutes, absorbance was measured at 405 nm.
(3) Calculation of Inhibitory Activity of the Compounds of the Present Invention
(§5) A calibration curve was obtained by use of a PG screening EIA standard, and the production amount of PGF2α was determined from the absorbance Percent inhibition against COX-1 or COX-2 in the presence of a 50 μM of the compound was calculated.
Background: An ELISA detects its analyte on a solid surface through an enzyme-linked reagent.

Experiment [3] concerns collagen-induced platelet aggregation. The experiment can be described thus: Platelet aggregation-inhibitory action (collagen-induced aggregation in platelet rich plasma). Format: cell-based. To be noted: human PRP, 37° C., read-out: Inhibition of collagen-induced platelet aggregation, IC50. How it is done:
The blood was centrifuged at 180×g for 10 minutes to separate platelet rich plasma (PRP) from the blood. Upper layer PRP was removed, and the lower layer was centrifuged at 1600×g for 10 minutes, to thereby recover the upper layer platelet poor plasma (PPP). A solution (1 μL) of compound of the present invention was added to PRP (200 μL), and the mixture was allowed to stand at 37° C. for 2 minutes. Subsequently, collagen (2 μL) was added to the resultant mixture so as to induce platelet aggregation. Percent platelet aggregation was measured using PAM-12C (SSR Engineering). Optical transmittance of PPP was regarded as an indicator of 100% aggregation. Percent platelet aggregation values of the respective compounds were determined at different concentrations. IC50 values were calculated.

The target in experiment [4] is T2, Cyclooxygenase-2 (COX-2) (Homo sapiens, UniProt P35354).
T2 construct: purchased Cayman Chemical Company 560101 and 560121
T2 sequence (P35354 18-604): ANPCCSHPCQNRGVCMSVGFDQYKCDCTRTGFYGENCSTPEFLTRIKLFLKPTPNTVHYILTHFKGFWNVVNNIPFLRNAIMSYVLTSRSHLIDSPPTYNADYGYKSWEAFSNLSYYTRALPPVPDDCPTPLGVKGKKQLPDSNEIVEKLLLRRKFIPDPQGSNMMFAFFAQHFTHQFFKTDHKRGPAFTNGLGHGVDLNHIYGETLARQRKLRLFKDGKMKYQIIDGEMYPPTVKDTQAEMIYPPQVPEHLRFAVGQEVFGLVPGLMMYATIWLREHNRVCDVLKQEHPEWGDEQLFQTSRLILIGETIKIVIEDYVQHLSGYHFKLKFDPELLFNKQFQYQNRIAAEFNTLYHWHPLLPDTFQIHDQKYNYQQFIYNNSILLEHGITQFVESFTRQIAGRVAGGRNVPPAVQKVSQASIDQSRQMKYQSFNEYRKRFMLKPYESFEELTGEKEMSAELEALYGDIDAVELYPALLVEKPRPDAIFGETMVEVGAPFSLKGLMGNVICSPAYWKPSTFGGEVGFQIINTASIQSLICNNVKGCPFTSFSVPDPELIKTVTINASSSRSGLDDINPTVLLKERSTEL
The experiment can be described thus: COX Inhibitor Screening Assay Kit, COX-2 (PGF2α by ELISA). The class given is biochemical. To be noted: 50 μM compound; read-out: Inhibitory effect against COX-2 at 50 μM (% inhibition). As to the method: as §1, §2, §3
A reaction mixture containing a compound of the present invention from the Examples (50 μM) and COX-1 or COX-2 was allowed to stand at 37° C. for 10 minutes. Arachidonic acid (10 μL) was added thereto, and the resultant mixture was further allowed to stand at 37° C. for 2 minutes. […]
as §4
Antiserum (rabbit anti-PGF2α antibody, 50 μL) was added to the wells of a 96-well plate that had been coated with mouse anti-rabbit IgG. […] After keeping the plate in a dark room for 60 minutes, absorbance was measured at 405 nm. […]
as §5

Molecules are shown by their SMILES. Read-outs that look alike come from different tables or passages of the source.

With `CS(=O)(=O)c1ccc(-c2cc(C#N)nn2-c2ccc(F)cc2)cc1` [Compound (A)], the half-inhibitory concentration (IC50) (as a rule, the midpoint of a concentration-inhibition curve) in experiment [1] (read-out: IC50 value against collagen-induced platelet aggregation) was 5300 nM.

For `NC(=O)c1ccc(-c2cc(C(=O)N3CCC(F)(F)CC3)nn2-c2cccnc2)nc1` [Example 13, 1-[5-(5-Carbamoyl-2-pyridyl)-1-(3-pyridyl)-1H-pyrazole-3-carbonyl]-4,4-difluoropiperidine], in experiment [2], the inhibition (usually the change of the read-out against control, counted positive when it falls) at 50 µM was 10.3%. Besides, the 50% inhibitory concentration (IC50) in experiment [3] is 130 nM.

Take `Cc1ccc(-c2cc(C(=O)N3CCC(F)(F)CC3)nn2-c2cccnc2)nc1` [Example 15, 1-[5-(5-Methyl-2-pyridyl)-1-(3-pyridyl)-1H-pyrazole-3-carbonyl]-4,4-difluoropiperidine]: the inhibition at 50 µM in experiment [2] is 8.1%. For the same molecule, the IC50 in experiment [3] amounted to 9 nM.

On to `O=C(c1cc(-c2ccc(Cl)cn2)n(-c2cccnc2)n1)N1CCC(F)CC1` [Example 29, 1-[5-(5-Chloro-2-pyridyl)-1-(3-pyridyl)-1H-pyrazole-3-carbonyl]-4-fluoropiperidine], for which the inhibition at 50 µM in experiment [2] was -1.4%; in experiment [4] it was 5.3%. For the same molecule, in experiment [3], the IC50 was found to be 95 nM.

With `COC1CCN(C(=O)c2cc(-c3ccc(C)cn3)n(-c3cccnc3)n2)CC1` [Example 30, 1-[5-(5-Methyl-2-pyridyl)-1-(3-pyridyl)-1H-pyrazole-3-carbonyl]-4-methoxypiperidine], in experiment [2], the inhibition at 50 µM was -21.1%. In experiment [3], the concentration for half-maximal inhibition (IC50) stood at 120 nM.

On to `Cc1ccc(-c2cc(C(=O)N3CCC(F)CC3)nn2-c2cccnc2)nc1` [Example 33], for which the inhibition at 50 µM in experiment [2] is -16.7%. The IC50 in experiment [3] was 31.3 nM.

As for `Cc1ccc(-c2cc(C(=O)N3CCCCN3)nn2-c2cccnc2)nc1` [Example 57, 1-[5-(5-Methylpyridin-2-yl)-1-(pyridin-3-yl)-1H-pyrazole-3-carbonyl]hexahydropyridazine], the inhibition at 50 µM in experiment [2] was -17.4%. Also, the IC50 in experiment [3] is 140 nM.

As for `O=C(c1cc(-c2ccc(CO)cn2)n(-c2cccnc2)n1)N1CCC(F)(F)CC1` [Example 65, 1-[5-(5-Hydroxymethylpyridin-2-yl)-1-(pyridin-3-yl)-1H-pyrazole-3-carbonyl]-4,4-difluoropiperidine], in experiment [2], the inhibition at 50 µM is 5.9%. Further, the IC50 in experiment [3] is 130 nM.

Consider `Cc1ccc(-c2cc(C(=O)N3CCN(C)CC3)nn2-c2cccnc2)nc1` [Example 67, 1-[5-(5-Methylpyridin-2-yl)-1-(pyridin-3-yl)-1H-pyrazole-3-carbonyl]-4-methylpiperazine], for which, in experiment [2], the inhibition at 50 µM was -21%. Also, the IC50 in experiment [3] stood at 190 nM.

In the case of `Cn1cnc(-c2cc(C(=O)N3CCC(F)(F)CC3)nn2-c2cccnc2)c1` [Example 70, 1-[5-(1-Methyl-1H-imidazol-4-yl)-1-(pyridin-3-yl)-1H-pyrazole-3-carbonyl]-4,4-difluoropiperidine], the inhibition at 50 µM in experiment [2] was 5.5%. Further, in experiment [3], the IC50 worked out at 280 nM.

Turning to `Cc1ccc(-c2cc(C(=O)N3CCN(C)C(=O)C3)nn2-c2cccnc2)nc1` [Example 71, 1-[5-(5-Methylpyridin-2-yl)-1-(pyridin-3-yl)-1H-pyrazole-3-carbonyl]-4-methyl-3-oxopiperazine], in experiment [2], the inhibition at 50 µM was 18.1%. In experiment [3], the concentration for half-maximal inhibition (IC50) is 270 nM.

As for `C=C1CCN(C(=O)c2cc(-c3cn(C)cn3)n(-c3cccnc3)n2)CC1` [Example 73, 1-[5-(1-Methyl-1H-imidazol-4-yl)-1-(pyridin-3-yl)-1H-pyrazole-3-carbonyl]-4-methylenepiperidine], the inhibition at 50 µM in experiment [2] amounted to 11.9%. Moreover, the IC50 in experiment [3] was 78 nM.

In the case of `COc1ccc(-c2cc(C(F)F)nn2-c2ccc(S(N)(=O)=O)cc2)cc1F` [compound (B)], the “platelet aggregation inhibitory activity compared with inhibitory activity against COX-2” value in experiment [1] was “not so potent”.

(Values after patent US20080064682A1, “Pyrazole Derivatives” (DAIICHI PHARMACEUTICAL CO., LTD., priority 2004, published 2008).)
